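Compound exposure: 48 hours, 5 concentrations, 96-well plates. GI50 marks 50% less growth. TGI: concentration producing complete growth inhibition.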 A value given as a limit tells only on which side of the number the result lay.

Holding throughout (assay): NCI tumour cell line growth inhibition, 48 h
Assay [1] has as its system A549 NSCLC.
The test system of assay [2] is T-47D breast.
The subject of assay [3] is TK-10 renal.
Assay [4] deals with MDA-MB-435.
The subject of assay [5] is HOP-92 NSCLC.
Assay [6] has as its system NCI-H460 lung.
The subject of assay [7] is SF-539 CNS.
Assay [8] has as its system SR leukemia.
The subject of assay [9] is NCI/ADR-RES ovarian.
The subject of assay [10] is LOX IMVI melanoma.

On to `Cc1nn(CNc2ccccc2C(F)(F)F)c(=S)n1/N=C/c1cccc2cccnc12`, for which the GI50 in assay [1] is above 100 µM; in assay [2], above 100 µM; in assay [3], above 100 µM; in assay [4] it was 22.7 µM; in assay [5], 74.7 µM; in assay [6], above 100 µM. The GI50 in [7] was above 100 µM; in [8], 20.2 µM; in assay [9], 35.3 µM; in assay [10], 34.7 µM. The TGI is above 100 µM in [1]; above 100 µM in assay [2]; above 100 µM in assay [3]; 55 µM in assay [4]; above 100 µM in assay [5]; above 100 µM in assay [6]. The TGI in assay [7] is above 100 µM; in assay [8], 67.6 µM; in [9] it was above 100 µM; in [10], above 100 µM.

`CCc1nc(N)nc(N)c1-c1ccc(Cl)c([N+](=O)[O-])c1`: the TGI in assay [1] is above 100 µM; in assay [2], above 100 µM; in assay [3], above 100 µM; in assay [4], above 100 µM; in assay [5], above 87.1 µM; in assay [6] it was above 100 µM. In addition, the TGI in assay [7] is 51.4 µM; in assay [8] it was above 26.5 µM; in assay [9] it was above 100 µM; in [10] it was above 100 µM.

Regarding `Cc1ccc(O)c(NC(=O)c2cccc(Nc3ccnc(C(F)(F)F)c3)c2)c1`, the GI50 in assay [1] is 5.09 µM; in [2], 2.29 µM; in assay [3], 19.1 µM; in [4] it was 6.65 µM; in assay [5], 2.24 µM; in [6] it was 10.4 µM. Also, the GI50 was 12.5 µM in assay [7], 1.02 µM in [8], 3 µM in assay [9] and 9.46 µM in assay [10]. In addition, the TGI in assay [1] amounted to 28 µM; in [2], 24 µM; in [3], 73.5 µM; in assay [4], 25.9 µM; in assay [5], 21.1 µM; in assay [6], 35.3 µM. Moreover, the TGI in [7] worked out at 25.7 µM; in assay [8], 16.4 µM; in assay [9], 32.4 µM; in [10] it was 27.4 µM.

As for `O=C1N[C@@H]2[C@@H](O)[C@@H](O)[C@H](O)C[C@H]2c2cc3c(c(O)c21)OCCO3`, the GI50 is 0.354 µM in [1]; 0.176 µM in assay [2]; 0.684 µM in [3]; 0.269 µM in assay [4]; 0.116 µM in assay [5]; 0.157 µM in assay [6]. Moreover, the GI50 in [7] was 0.254 µM; in assay [8] it was 0.245 µM; in assay [9] it was 0.629 µM; in assay [10], 0.167 µM. The TGI stood at 5.58 µM in assay [1]; 1.31 µM in assay [2]; 5.09 µM in assay [3]; 1.22 µM in [4]; 0.892 µM in assay [5]; 1.13 µM in [6]. Moreover, the TGI in assay [7] turned out to be 0.928 µM; in assay [8], 27.4 µM; in [9], 5.38 µM; in [10], 0.444 µM.

As for `O=c1oc2ccc(I)cc2c(=O)n1-c1ccc(Br)cc1F`, the GI50 in assay [1] is 2.82 µM; in [2] it was 0.856 µM; in [3] it was 3.81 µM; in assay [4], 0.938 µM; in assay [5] it was 0.207 µM; in assay [6] it was 0.5 µM. Also, the GI50 is 0.632 µM in assay [7], 0.605 µM in assay [8], 0.798 µM in assay [9] and 0.626 µM in assay [10]. The TGI in [1] was above 39.7 µM; in assay [2], 6.7 µM; in assay [3], 10.2 µM; in [4], 6.42 µM; in assay [5], 0.634 µM; in [6], 10.6 µM. Also, the TGI is 4.99 µM in assay [7], above 34.1 µM in assay [8], 6.09 µM in assay [9] and 5.86 µM in assay [10].

In the case of `COc1cc2c(cc1OC(C)C)[C@H](c1ccc(Cl)cc1)N(c1ccc(N(C)CC3CCC(N4CCN(C)C(=O)C4)CC3)cc1)C(=O)C2` (stereo not given in full), the GI50 in assay [1] is 0.537 µM; in assay [2], 2.62 µM; in [3] it was 3.63 µM; in assay [4] it was 2.47 µM; in [5] it was 1.98 µM; in assay [6], 0.531 µM. The GI50 in [7] was 1.64 µM; in [8] it was 0.123 µM; in [9], 3.18 µM; in assay [10], 0.516 µM. Besides, the TGI in assay [1] is 5.24 µM; in [2], 11.8 µM; in assay [3], 9.34 µM; in [4] it was 6.93 µM; in [5] it was 4.85 µM; in assay [6], 4.43 µM. Besides, the TGI in assay [7] came to 3.21 µM; in assay [8], 1.97 µM; in [9], 14.7 µM; in assay [10] it was 2.19 µM.

With `CN(Cc1ccccc1)Cn1ccnc1`, the TGI is above 100 µM in [1]; above 100 µM in assay [2]; above 100 µM in [3]; above 100 µM in assay [4]; above 100 µM in [5]; above 80.6 µM in [6]. Moreover, the TGI in [7] is above 100 µM; in assay [8] it was above 66.8 µM; in assay [9], above 100 µM; in assay [10], above 100 µM.

For `CNC(=O)c1ccc(N2C(=S)N(c3cnc(C#N)c(C(F)(F)F)c3)C(=O)C23CCC3)cc1F`, the GI50 in assay [1] is above 100 µM; in assay [2] it was 80.6 µM; in assay [3] it was above 100 µM; in [4], above 100 µM; in assay [5] it was above 86.7 µM; in assay [6], above 100 µM. The GI50 in [7] was above 100 µM; in assay [8] it was 51.5 µM; in assay [9], above 100 µM; in assay [10] it was above 100 µM. The TGI in assay [1], in assay [2], in assay [3], in assay [4], in assay [5] and in [6] was above 100 µM in each case. Also, the TGI in assay [7], in [8], in assay [9] and in assay [10] was above 100 µM in each case.

Values taken from PubChem BioAssay (NCI).
